Experimental data as given in ChEMBL document CHEMBL1201862, “PubChem BioAssay data set” (2004).
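Five concentrations, 48 hours, 96-well plates. At the GI50, growth is halved.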 Active and inactive are the calls of the source. No stated cut-off is given here; in the data, active = GI50 up to about 1.1 µM and inactive = higher.

How the values were obtained:
Test in all cases: growth of human tumour cells (NCI), 48 h
KM12 = system: KM12
SW-620 = system: SW-620
MOLT-4 = system: MOLT-4
SK-MEL-2 = system: SK-MEL-2
MDA-N = system: MDA-N
HOP-62 = system: HOP-62
IGROV-1 = system: IGROV-1
OVCAR-3 = system: OVCAR-3
UACC-62 = system: UACC-62
MCF7 = system: MCF7
COLO 205 = system: COLO 205
Hs-578T = system: Hs-578T
SF-539 = system: SF-539
OVCAR-8 = system: OVCAR-8
PC-3 = system: PC-3
A498 = system: A498
NCI/ADR-RES = system: NCI/ADR-RES
A549 = system: A549
MDA-MB-231 = system: MDA-MB-231
DU-145 = system: DU-145

Measured: GI50

COc1ccc(/C=C2\C[C@H]3[C@@H]4CCC5=C[C@@H](N6CCCC6)CC[C@]5(C)[C@H]4CC[C@]3(C)[C@H]2O)cc1
inactive: KM12 2.34 µM | SW-620 2.3 µM | MOLT-4 2.86 µM | SK-MEL-2 1.88 µM | MDA-N 1.57 µM | HOP-62 1.66 µM | IGROV-1 4.28 µM | OVCAR-3 2.64 µM | UACC-62 1.78 µM | MCF7 1.93 µM | COLO 205 1.67 µM | Hs-578T 2.69 µM | SF-539 2.15 µM | OVCAR-8 3.52 µM | PC-3 2.25 µM | A498 1.61 µM | NCI/ADR-RES 4.39 µM | A549 2.58 µM | MDA-MB-231 1.96 µM | DU-145 4.91 µM

N#Cc1nc(Sc2cnsn2)c(Sc2cnsn2)nc1C#N
inactive: KM12 20.7 µM | SW-620 2.25 µM | MOLT-4 2.65 µM | SK-MEL-2 21.2 µM | MDA-N 20.4 µM | HOP-62 18.7 µM | IGROV-1 18.5 µM | OVCAR-3 6.79 µM | UACC-62 17.6 µM | MCF7 21.9 µM | COLO 205 3.85 µM | Hs-578T 19.1 µM | SF-539 19.4 µM | OVCAR-8 24.5 µM | PC-3 21.6 µM | A498 21.8 µM | NCI/ADR-RES 22.8 µM | A549 28.6 µM | MDA-MB-231 23.9 µM | DU-145 17.1 µM

C[C@H]1CC[C@H](NC(=O)N(CCCl)N=O)CC1
inactive: KM12 59.3 µM | SW-620 31.3 µM | MOLT-4 18.3 µM | SK-MEL-2 46.5 µM | MDA-N 44.8 µM | HOP-62 48.3 µM | IGROV-1 38.8 µM | OVCAR-3 42.1 µM | UACC-62 14.3 µM | MCF7 50.4 µM | COLO 205 32.7 µM | Hs-578T 57.4 µM | SF-539 27.1 µM | OVCAR-8 53.2 µM | PC-3 47.9 µM | A498 53 µM | NCI/ADR-RES 47.1 µM | A549 51.3 µM | MDA-MB-231 48 µM | DU-145 82.4 µM

COc1cc([C@H]2Oc3c(OC)cc(CCCO)cc3[C@@H]2CO)ccc1O [DIHYDRODEHYDRODICONIFERY ALCOHOL]
inactive: KM12 > 100 µM | SW-620 > 100 µM | MOLT-4 51.6 µM | SK-MEL-2 > 100 µM | MDA-N > 100 µM | HOP-62 > 100 µM | IGROV-1 > 100 µM | OVCAR-3 > 100 µM | UACC-62 55.3 µM | MCF7 37.2 µM | COLO 205 > 100 µM | Hs-578T 47.2 µM | SF-539 > 100 µM | OVCAR-8 > 100 µM | PC-3 > 100 µM | A498 50.6 µM | NCI/ADR-RES > 100 µM | A549 > 100 µM | MDA-MB-231 27.2 µM | DU-145 > 100 µM

O=C1Nc2ccccc2/C1=C/c1ccccc1
inactive: KM12 15.3 µM | SW-620 25.2 µM | MOLT-4 15.6 µM | SK-MEL-2 14.3 µM | MDA-N 17.7 µM | HOP-62 18 µM | IGROV-1 11.7 µM | OVCAR-3 16.7 µM | UACC-62 13.9 µM | MCF7 3.36 µM | COLO 205 16.8 µM | Hs-578T 24.1 µM | SF-539 15.4 µM | OVCAR-8 18.8 µM | PC-3 14.6 µM | A498 13.5 µM | NCI/ADR-RES 22.8 µM | A549 25.2 µM | MDA-MB-231 17.8 µM | DU-145 13.8 µM

N#CC1=C(N2CCOCC2)CCC1
inactive: KM12 > 100 µM | SW-620 > 100 µM | MOLT-4 > 100 µM | SK-MEL-2 > 100 µM | MDA-N 52.6 µM | HOP-62 > 100 µM | IGROV-1 > 100 µM | OVCAR-3 > 100 µM | UACC-62 > 100 µM | MCF7 > 100 µM | COLO 205 > 100 µM | Hs-578T > 100 µM | SF-539 > 100 µM | OVCAR-8 > 100 µM | PC-3 > 100 µM | A498 > 100 µM | NCI/ADR-RES > 100 µM | A549 > 100 µM | MDA-MB-231 > 100 µM | DU-145 > 100 µM

CC(C)(C)OC(=O)N/N=C(/N)Cc1ccccc1
inactive: KM12 > 100 µM | SW-620 > 100 µM | MOLT-4 > 100 µM | SK-MEL-2 > 100 µM | MDA-N > 100 µM | HOP-62 > 100 µM | IGROV-1 > 100 µM | OVCAR-3 > 100 µM | UACC-62 > 100 µM | MCF7 > 100 µM | COLO 205 > 100 µM | Hs-578T > 100 µM | SF-539 > 100 µM | OVCAR-8 > 100 µM | PC-3 > 100 µM | A498 > 100 µM | NCI/ADR-RES > 100 µM | A549 > 100 µM | MDA-MB-231 > 100 µM | DU-145 > 100 µM

N#CSC#CCCC#CSC#N
inactive: KM12 17.7 µM | SW-620 14.2 µM | MOLT-4 2.58 µM | SK-MEL-2 20.3 µM | MDA-N 18.2 µM | HOP-62 19.3 µM | IGROV-1 20.3 µM | OVCAR-3 21.6 µM | UACC-62 17 µM | MCF7 20.7 µM | COLO 205 12.9 µM | Hs-578T 23.5 µM | SF-539 19.5 µM | OVCAR-8 25.4 µM | PC-3 20.9 µM | A498 20 µM | NCI/ADR-RES 28.2 µM | A549 19.6 µM | MDA-MB-231 17.7 µM | DU-145 15 µM

OCCCc1ccc2c(c1)[C@H](CO)[C@@H](c1ccc(O)cc1)O2
inactive: KM12 82.4 µM | SW-620 > 100 µM | MOLT-4 19.5 µM | SK-MEL-2 > 100 µM | MDA-N 87.7 µM | HOP-62 > 100 µM | IGROV-1 > 100 µM | OVCAR-3 > 100 µM | UACC-62 51.9 µM | MCF7 > 100 µM | COLO 205 > 100 µM | Hs-578T 19.5 µM | SF-539 > 100 µM | OVCAR-8 > 100 µM | PC-3 50.4 µM | A498 > 100 µM | NCI/ADR-RES > 100 µM | A549 > 100 µM | MDA-MB-231 > 100 µM | DU-145 > 100 µM

Cc1cc(C)c(S(=O)(=O)N[C@@H](/C=C(\Br)CO)C(C)C)c(C)c1
inactive: KM12 33.6 µM | SW-620 27 µM | MOLT-4 24.2 µM | SK-MEL-2 16.1 µM | MDA-N 26.1 µM | HOP-62 56.5 µM | IGROV-1 29.9 µM | OVCAR-3 21.2 µM | UACC-62 13.2 µM | MCF7 19.6 µM | COLO 205 15.8 µM | Hs-578T 22.5 µM | SF-539 31.8 µM | OVCAR-8 33.7 µM | PC-3 17.2 µM | A498 20.7 µM | NCI/ADR-RES 36.5 µM | A549 30.8 µM | MDA-MB-231 23.6 µM | DU-145 34.5 µM
